Measured values as given in patent publication US6503939B2, “Combination regimens using 3,3-substituted indoline derivatives” (Wyeth, priority 1999, dated 2003).

- melting point: 240 to 241 °C
SMILES: CC1Nc2ccc(-c3cccc([N+](=O)[O-])c3)cc2C1(C)C.Cl (stereo not shown)
